Legend:
[1] = Relaxivity measurements at 1.41 T in human plasma; assay type: physicochemical; details: 37° C., normalized to Gd
Procedure, shortened: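 T1 determined by inversion recovery (8 inversion-time steps) and T2 by CPMG sequence, both with relaxation delay ≥5×T1. Each relaxivity used three Gd concentrations between 0.05 and 2 mM. Relaxivities were derived from relaxation rates measured in water and plasma.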

[2] = In vivo pharmacokinetics following i.v. administration in rat
Experimental: Pharmacokinetic parameters of Example 1 and 15 and were determined in male and female rats (Han-Wistar, n=4). […] The samples were digested using strong acidic and oxidizing conditions at elevated temperature following dilution in 1% nitric acid to bring the samples in the quantification range of the method. The lower limit of quantitation amounts to 1 nmol/L for all elements and the upper limit to 1000 nmol/L in the diluted sample.
The fit of the obtained data to a three-compartment model (Phoenix, WinNonlin 6.4, 3-compartment mode) yielded the pharmacokinetic parameters which are shown in Table 8.

[3] = tested on: freshly isolated rat hepatocytes; test: Uptake into freshly isolated rat hepatocytes; details: for Uptake rat hepatocytes: 100 μmol Gd/L, 10 min, 37° C., relative to RC1 (Gd-EOB-DTPA); for Inhibition Rifampicine: rat hepatocyte uptake, test item and Rifampicine 1:1, each 100 μM
[4] = Excretion study in rats (5 days) and residual gadolinium organ distribution (7 days); assay type: in vivo, rat; details: 0.1 mmol Gd/kg bw i.v.; for Σ organs and carcass [% Dose]: 7 d post injection
Experimental: The excretion and organ distribution of Example 1 and 15 were determined in male rats (Han-Wistar, n=3). The compound was administered as a sterile aqueous solution (50 mmol Gd/L) as a bolus in the tail vein of the animals. The dose was 0.1 mmol Gd/kg bw. Urine was collected in the following time periods 0-1 h, 1-3 h, 3-6 h, 6-24 h, 1-2d and 2-5d post injection […] and feces 0-1d, 1-2d and 2-5d post injection. As a control, 3 animals were treated in the same way with RC1. On day 7 the animals were sacrificed, and the following organs were excised: blood, liver, kidney, spleen, heart, lung, brain, muscle, skin, stomach, gut, bone and bone marrow. The remaining carcass was freeze dried and ground to a fine powder. The Gd concentration in the organs and the carcass was determined by ICP-MS (ICP-MS Agilent 7500a, Waldbronn, Germany). The compounds are excreted via dual pathway (liver and kidney). Less than 1% of the administered dose was present in the body 7 days after the injection.

[5] = tested on: cryopreserved rat hepatocytes; test: In vitro metabolism in cryopreserved rat hepatocytes; assay type: in vitro ADME; details: 5 μM, incubation time of 4 h, LC-MS
Experimental: The in vitro metabolism was investigated in cryopreserved human and rat hepatocytes (Li A P et al. Biomark Med. 2014; 8 (2): 173-83). Cryopreserved human (WSS) and rat hepatocytes (Wistar rat, RWH137, male) were incubated with the test compound (incubation concentration: 5 μM). The amount of remaining compound was related to the initial amount (0 mins). The cells were removed from the liquid nitrogen. The vial was immersed in the 37° C. water bath and shaken gently (by hand) until most of the ice was melted (approx. 90 sec.). The cell suspensions were transferred e.g. into a 50 ml-centrifuge tube and 12 ml of 4° C.-cold buffer (e.g. Krebs-Henseleit or Williams Medium E) were added. The cell suspension was centrifuged at 50×g for 5 mins. The buffer was aspirated, and the cells resuspended in 5 ml of fresh warm buffer. An aliquot of 50 μl was mixed with 200 μl trypan blue to determine the cell density and cell viability. The cell suspension was adjusted to a final concentration of 0.8 Mio hepatocytes per mL. The incubations were performed in 96 well plates (1.2 ml volume, negative control without cells). The 0 min samples were stopped immediately by adding 250 μl of ice-cold methanol. All other samples are shaken on an Heidolph®-rotor during incubation in a 37° C. incubator for the indicated period of 4 hours. Aliquots of the samples were used for analysis. All samples were analyzed using LC-MS at 0 h, 1 h, 2 h and 4 h (exemplary LC-MS: Accucore C-18 column, 30° C., 0.35 mL/min flow rate, solvent A: 10 mM Ammonium formate+5% MeCN, pH4 and solvent B: MeCN+0.1% formic acid; […] injection volume, gradient: 90% A, 10% B, 5 min 70% A and 30% B, 8 min 0% A and 100% B).

## CCOc1ccc(CCOCC(C(=O)O)N2CCN(CC(=O)[O-])CCN(CC(=O)[O-])CCN(CC(=O)[O-])CC2)cc1.[Gd+3] (centres unmarked) [Example 1, gadolinium 2,2′,2″-(10-{1-carboxy-2-[2-(4-ethoxyphenyl)ethoxy]ethyl}-1,4,7,10-tetraazacyclododecane-1,4,7-triyl)triacetate]
[1]
  r1 human plasma: 6.5 L/mmol/s
[2]; dose 25 μmol/kg bw
  AUC∞ Area under the curve: 16 µM·h
  Clplasma Plasma clearance: 1.6 L/h/kg
  Vss Volume of distribution at steady state: 0.4 L/kg
  t½ α Half-life, compartment V1: 1.8 min
  t½ β Half-life, compartment V2: 13 min
  t½ γ Half-life, compartment V3: 114 min
[2]; dose 250 μmol/kg bw
  AUC∞ Area under the curve: 315 µM·h
  Clplasma Plasma clearance: 0.8 L/h/kg
  Vss Volume of distribution at steady state: 0.2 L/kg
  t½ α Half-life, compartment V1: 3 min
  t½ β Half-life, compartment V2: 11 min
  t½ γ Half-life, compartment V3: 396 min
[3]
  Uptake rat hepatocytes: 29 % of RC1
  Inhibition Rifampicine: 93 % inhibition
[4]
  Total recovery [% Dose]: 98.6 ± 2.1%
  Σ organs and carcass [% Dose]: 0.65 ± 0.07%
[4]; 0-1 h post injection
  Excretion in urine [% Dose]: 39.8 ± 6.8%
[4]; 0-1 d post injection
  Excretion in feces [% Dose]: 55.6 ± 5.6%
[4]; 1-3 h post injection
  Excretion in urine [% Dose]: 40.3 ± 6.8%
[4]; 1-2 d post injection
  Excretion in feces [% Dose]: 56.9 ± 6.6%
  Excretion in urine [% Dose]: 40.9 ± 7.4%
[4]; 2-5 d post injection
  Excretion in feces [% Dose]: 57.0 ± 6.6%
  Excretion in urine [% Dose]: 40.9 ± 7.4%
[4]; 3-6 h post injection
  Excretion in urine [% Dose]: 40.3 ± 6.8%
[4]; 6-24 h post injection
  Excretion in urine [% Dose]: 40.8 ± 7.4%
[5]
  Metabolites detected: No metabolites were detected

## CCOCCOCCOc1ccc(CC(C(=O)O)N2CCN(CC(=O)[O-])CCN(CC(=O)[O-])CCN(CC(=O)[O-])CC2)cc1.[Gd+3] (centres unmarked) [Example 2, gadolinium 2,2′,2″-{10-[1-carboxy-2-{4-[2-(2-ethoxyethoxy)ethoxy]phenyl}ethyl]-1,4,7,10-tetraazacyclododecane-1,4,7-triyl}triacetate]
[1]
  r1 human plasma: 6.2 L/mmol/s
[3]
  Uptake rat hepatocytes: 52 % of RC1
  Inhibition Rifampicine: 85 % inhibition
[5]
  Metabolites detected: No metabolites were detected

## CCOCCOCCOc1ccc(CCC[C@@H](C(=O)O)N2CCN([C@@H](CO)C(=O)[O-])CCN([C@@H](CO)C(=O)[O-])CCN([C@@H](CO)C(=O)[O-])CC2)cc1.[Gd+3] [Example 15, gadolinium (2S,2′S,2″S)-2,2′,2″-{10-[(1S)-1-carboxy-4-{4-[2-(2-ethoxyethoxy)ethoxy]phenyl}butyl]-1,4,7,10-tetraazacyclododecane-1,4,7-triyl}tris(3-hydroxypropanoate)]
[1]
  r1 human plasma: 8.7 L/mmol/s
[2]; dose 25 μmol/kg bw
  AUCnorm Area under the curve: 0.38 kg·h/L
  Clplasma Plasma clearance: 2.7 L/h/kg
  Vss Volume of distribution at steady state: 0.4 L/kg
  t½ α Half-life, compartment V1: 3 min
  t½ β Half-life, compartment V2: 12 min
  t½ γ Half-life, compartment V3: 588 min
[3]
  Uptake rat hepatocytes: 109 % of RC1
  Inhibition Rifampicine: 94 % inhibition
[4]
  Total recovery [% Dose]: 97.9 ± 5.4%
  Σ organs and carcass [% Dose]: 0.11 ± 0.03%
[4]; 0-1 h post injection
  Excretion in urine [% Dose]: 12.6 ± 11.1%
[4]; 0-1 d post injection
  Excretion in feces [% Dose]: 78.6 ± 6.2%
[4]; 1-3 h post injection
  Excretion in urine [% Dose]: 17.3 ± 3.4%
[4]; 1-2 d post injection
  Excretion in feces [% Dose]: 80.0 ± 5.3%
  Excretion in urine [% Dose]: 17.7 ± 3.3%
[4]; 2-5 d post injection
  Excretion in feces [% Dose]: 80.0 ± 5.3%
  Excretion in urine [% Dose]: 17.7 ± 3.3%
[4]; 3-6 h post injection
  Excretion in urine [% Dose]: 17.4 ± 3.3%
[4]; 6-24 h post injection
  Excretion in urine [% Dose]: 17.6 ± 3.3%
[5]
  Metabolites detected: No metabolites were detected

## CCOc1ccc(CC(CN(CCN(CC(=O)[O-])CC(=O)[O-])CC(=O)[O-])N(CC(=O)[O-])CC(=O)[O-])cc1.[Gd+3].[Na+].[Na+] (centres unmarked) [RC1, gadoxetate disodium, reference compound]
[2]; dose 100 μmol/kg bw
  AUCnorm Area under the curve: 0.40 kg·h/L
  Clplasma Plasma clearance: 2.4 L/h/kg
  Vss Volume of distribution at steady state: 0.9 L/kg
  t½ α Half-life, compartment V1: 2 min
  t½ β Half-life, compartment V2: 8 min
  t½ γ Half-life, compartment V3: 390 min
[3]
  Uptake rat hepatocytes: 100 % of RC1
  Inhibition Rifampicine: 97 % inhibition
[4]
  Total recovery [% Dose]: 104.6 ± 2.4%
  Σ organs and carcass [% Dose]: 0.14 ± 0.08%
[4]; 0-1 h post injection
  Excretion in urine [% Dose]: 23.2 ± 1.6%
[4]; 0-1 d post injection
  Excretion in feces [% Dose]: 77.5 ± 2.7%
[4]; 1-3 h post injection
  Excretion in urine [% Dose]: 23.5 ± 1.5%
[4]; 1-2 d post injection
  Excretion in feces [% Dose]: 80.6 ± 2.9%
  Excretion in urine [% Dose]: 23.7 ± 1.5%
[4]; 2-5 d post injection
  Excretion in feces [% Dose]: 80.8 ± 2.9%
  Excretion in urine [% Dose]: 23.7 ± 1.5%
[4]; 3-6 h post injection
  Excretion in urine [% Dose]: 23.6 ± 1.5%
[4]; 6-24 h post injection
  Excretion in urine [% Dose]: 23.7 ± 1.5%
